Experimental data from US8088806B2 (Achillion Pharmaceuticals, Inc., priority 2005, dated 2012).

These compounds were tested on HCV replicon (assay: Replicon based assay of HCV replication inhibition (NPT ELISA)). Conditions: Hepatitis C virus, replicon based assay of HCV replication inhibition; Table IV; read-out: Activity.
Type: cell-based, Hepatitis C virus
In short: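 Huh-7 cells carrying a bicistronic HCV replicon (neo, EMCV-IRES-driven NS3–NS5B) treated overnight after seeding with usually 6 concentrations, 10 to 0.03 micromolar, for three days at 37° C without G418. Replication read as NPT level by captured ELISA; matched-DMSO wells and interferon alpha as controls.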

SMILES	EC50
COc1cc(Nc2nc(-c3cccnc3)cs2)cc(OC)c1 [compound 901, N-(3,5-dimethoxyphenyl)-4-(pyridin-3-yl)thiazol-2-amine]	1000 to 10000 nM
CCC(C)(C)c1ccc(Oc2ccccc2)c(Nc2nc(-c3cccnc3)cs2)c1 [compound 902, N-(5-tert-pentyl-2-phenoxyphenyl)-4-(pyridin-3-yl)thiazol-2-amine]	< 1000 nM
COc1cc(-c2ccccc2)c(C)cc1Nc1nc(-c2cccnc2)cs1 [compound 903]	< 1000 nM
O=C(O)c1ccc(Oc2ccc(Nc3nc(-c4cccnc4)cs3)cc2)cc1 [compound 904, 4-(4-(4-(pyridin-3-yl)thiazol-2-ylamino)phenoxy)benzoic acid]	< 1000 nM
Cc1ccc(-c2ccccc2)cc1Nc1nc(-c2cccnc2)cs1 [compound 905]	> 10000 nM
Cc1cc(C)cc(Nc2nc(-c3cccnc3)cs2)c1 [compound 906, N-(3,5-dimethylphenyl)-4-(pyridin-3-yl)thiazol-2-amine]	1000 to 10000 nM
CCOC(=O)/C=C/c1ccc(Nc2nc(-c3cccnc3)cs2)cc1 [compound 907, (E)-ethyl 3-(4-(4-(pyridin-3-yl)thiazol-2-ylamino)phenyl)acrylate]	> 10000 nM
FC(F)(F)c1cccc(Nc2nc(-c3cccnc3)cs2)c1 [compound 908, N-(3-(trifluoromethyl)phenyl)-4-(pyridin-3-yl)thiazol-2-amine]	< 1000 nM
O=C(O)Cc1ccc(Nc2nc(-c3cccnc3)cs2)cc1 [compound 909, 2-(4-(4-(pyridin-3-yl)thiazol-2-ylamino)phenyl)acetic acid]	> 10000 nM
Cc1noc(NS(=O)(=O)c2ccc(Nc3nc(-c4cccnc4)cs3)cc2)c1C [compound 910]	> 10000 nM
O=S(=O)(Nc1ccccn1)c1ccc(Nc2nc(-c3cccnc3)cs2)cc1 [compound 911]	> 10000 nM
Fc1cc(Nc2nc(-c3cccnc3)cs2)ccc1OCCCCc1ccccc1 [compound 912, N-(4-(4-phenylbutoxy)-3-fluorophenyl)-4-(pyridin-3-yl)thiazol-2-amine]	< 1000 nM
CCCCCCCCOc1ccc(Nc2nc(-c3cccnc3)c(C#N)s2)cc1C(F)(F)F [compound 913, 2-(3-(trifluoromethyl)-4-(octyloxy)phenylamino)-4-(pyridin-3-yl)thiazole-5-carbonitrile]	1000 to 10000 nM
CCCCCCCCOc1ccc(Nc2nc(-c3cccnc3)c(F)s2)cc1C(F)(F)F [compound 914, 5-fluoro-N-(3-(trifluoromethyl)-4-(octyloxy)phenyl)-4-(pyridin-3-yl)thiazol-2-amine]	< 1000 nM
CCCCCCCCOc1ccc(Nc2nc(-c3csc(C)n3)cs2)cc1C(F)(F)F [compound 915, N-(3-(trifluoromethyl)-4-(octyloxy)phenyl)-4-(2-methylthiazol-4-yl)thiazol-2-amine]	< 1000 nM
CCCCCCCCOc1ccc(Nc2nc(-c3csc(N)n3)cs2)cc1C(F)(F)F [compound 916, 4-(2-(3-(trifluoromethyl)-4-(octyloxy)phenylamino)thiazol-4-yl)thiazol-2-amine]	< 1000 nM
CCCCCCCCOc1ccc(Nc2nc(C(=O)CSc3ccccn3)cs2)cc1C(F)(F)F [compound 917, 1-(2-(3-(trifluoromethyl)-4-(octyloxy)phenylamino)thiazol-4-yl)-2-(pyridin-2-ylthio)ethanone]	1000 to 10000 nM
CCCCCCCCOc1ccc(Nc2nc(-c3cccnc3)c(Cl)s2)cc1C(F)(F)F [compound 918, 5-chloro-N-(3-(trifluoromethyl)-4-(octyloxy)phenyl)-4-(pyridin-3-yl)thiazol-2-amine]	< 1000 nM
COc1ncc(-c2csc(Nc3ccc4c(ccn4Cc4ccc(F)cc4)c3)n2)cn1 [compound 919, 1-(4-fluorobenzyl)-N-(4-(2-methoxypyrimidin-5-yl)thiazol-2-yl)-1H-indol-5-amine]	1000 to 10000 nM
c1ccc(CCCOc2ccc(Nc3nc(-c4cccnc4)cs3)cc2)cc1 [compound 920, N-(4-(3-phenylpropoxy)phenyl)-4-(pyridin-3-yl)thiazol-2-amine]	< 1000 nM
c1ccc(CCCCOc2ccc(Nc3nc(-c4cccnc4)cs3)cc2)cc1 [compound 921, N-(4-(4-phenylbutoxy)phenyl)-4-(pyridin-3-yl)thiazol-2-amine]	< 1000 nM
c1cncc(-c2csc(Nc3ccc(OCCCCc4cccs4)cc3)n2)c1 [compound 922, N-(4-(4-(thiophen-2-yl)butoxy)phenyl)-4-(pyridin-3-yl)thiazol-2-amine]	< 1000 nM

SMILES	EC50
CCCCCCCCOc1ccc(Nc2nc(-c3cccnc3)c(N)s2)cc1C(F)(F)F [compound 923, N^2-(3-(trifluoromethyl)-4-(octyloxy)phenyl)-4-(pyridin-3-yl)thiazole-2,5-diamine]	< 1000 nM
FC(F)(F)c1cc(Nc2nc(-c3cccnc3)cs2)ccc1OCCCOc1ccccc1 [compound 924, N-(4-(3-phenoxypropoxy)-3-(trifluoromethyl)phenyl)-4-(pyridin-3-yl)thiazol-2-amine]	< 1000 nM
O=C(O)Cc1ccc(-c2csc(Nc3ccc(OCCCCc4cccs4)c(C(F)(F)F)c3)n2)s1 [compound 925, 2-(5-(2-(4-(4-(thiophen-2-yl)butoxy)-3-(trifluoromethyl)phenylamino)thiazol-4-yl)thiophen-2-yl) acetic acid]	< 1000 nM
CCOC(=O)Cc1ccc(-c2csc(Nc3ccc(OCCCCc4cccs4)c(C(F)(F)F)c3)n2)s1 [compound 926, ethyl 2-(5-(2-(4-(4-(thiophen-2-yl)butoxy)-3-(trifluoromethyl)phenylamino)thiazol-4-yl)thiophen-2-yl)acetate]	1000 to 10000 nM
O=C(O)Cc1ccc(-c2csc(Nc3ccc(OCCCCc4ccccc4)c(C(F)(F)F)c3)n2)s1 [compound 927, 2-(5-(2-(4-(4-phenylbutoxy)-3-(trifluoromethyl)phenylamino)thiazol-4-yl)thiophen-2-yl)acetic acid]	< 1000 nM
CCOC(=O)Cc1ccc(-c2csc(Nc3ccc(OCCCCc4ccccc4)c(C(F)(F)F)c3)n2)s1 [compound 928, ethyl 2-(5-(2-(4-(4-phenylbutoxy)-3-(trifluoromethyl)phenylamino)thiazol-4-yl)thiophen-2-yl)acetate]	1000 to 10000 nM
O=C(O)Cc1ccc(-c2csc(Nc3ccc(OCCCCc4ccccc4)c(F)c3)n2)s1 [compound 929, 2-(5-(2-(4-(4-phenylbutoxy)-3-fluorophenylamino)thiazol-4-yl)thiophen-2-yl)acetic acid]	< 1000 nM
CCOC(=O)Cc1ccc(-c2csc(Nc3ccc(OCCCCc4ccccc4)c(F)c3)n2)s1 [compound 930, ethyl 2-(5-(2-(4-(4-phenylbutoxy)-3-fluorophenylamino)thiazol-4-yl)thiophen-2-yl)acetate]	1000 to 10000 nM
CCOC(=O)Cc1ccc(-c2csc(Nc3ccc(OCCCOc4ccccc4)cc3)n2)s1 [compound 931, ethyl 2-(5-(2-(4-(3-phenoxypropoxy)phenylamino)thiazol-4-yl)thiophen-2-yl)acetate]	1000 to 10000 nM
CCOC(=O)Cc1ccc(-c2csc(Nc3ccc(OCCN(CC)c4ccccc4)c(C(F)(F)F)c3)n2)s1 [compound 932]	1000 to 10000 nM
CCOC(=O)Cc1ccc(-c2csc(Nc3ccc(OCCOc4ccccc4)c(C(F)(F)F)c3)n2)s1 [compound 933, ethyl 2-(5-(2-(4-(2-phenoxyethoxy)-3-(trifluoromethyl)phenylamino)thiazol-4-yl)thiophen-2-yl)acetate]	1000 to 10000 nM
CCOC(=O)Cc1ccc(-c2csc(Nc3ccc(OCCSc4ccccc4)c(C(F)(F)F)c3)n2)s1 [compound 934, ethyl 2-(5-(2-(4-(2-(phenylthio)ethoxy)-3-(trifluoromethyl)phenylamino)thiazol-4-yl)thiophen-2-yl)acetate]	1000 to 10000 nM
Cc1cccc(CCCCOc2ccc(Nc3nc(-c4cccnc4)cs3)cc2C(F)(F)F)c1 [compound 935, N-(4-(4-m-tolylbutoxy)-3-(trifluoromethyl)phenyl)-4-(pyridin-3-yl)thiazol-2-amine]	< 1000 nM
Cc1cc(Nc2nc(-c3cccnc3)cs2)ccc1OCCCCc1ccccc1 [compound 936, N-(4-(4-phenylbutoxy)-3-methylphenyl)-4-(pyridin-3-yl)thiazol-2-amine]	< 1000 nM
C#CCCOc1ccc(Nc2nc(-c3cccnc3)cs2)cc1C(F)(F)F [compound 937, N-(4-(but-3-ynyloxy)-3-(trifluoromethyl)phenyl)-4-(pyridin-3-yl)thiazol-2-amine]	< 1000 nM
FC(F)(F)c1cc(Nc2nc(-c3cccnc3)cs2)ccc1CCCCCc1ccccc1 [compound 938, N-(3-(trifluoromethyl)-4-(5-phenylpentyl)phenyl)-4-(pyridin-3-yl)thiazol-2-amine]	< 1000 nM
COc1ncc(-c2csc(Nc3ccc(CCCCCc4ccccc4)c(C(F)(F)F)c3)n2)cn1 [compound 939, N-(3-(trifluoromethyl)-4-(5-phenylpentyl)phenyl)-4-(2-methoxypyrimidin-5-yl)thiazol-2-amine]	< 1000 nM
FC(F)(F)c1cc(Nc2nc(-c3cnccn3)cs2)ccc1OCCCCc1ccccc1 [compound 940, N-(4-(4-phenylbutoxy)-3-(trifluoromethyl)phenyl)-4-(pyrazin-2-yl)thiazol-2-amine]	< 1000 nM
FC(F)(F)c1cc(Nc2nc(-c3cnccn3)cs2)ccc1OCCCCc1cccs1 [compound 941, N-(4-(4-(thiophen-2-yl)butoxy)-3-(trifluoromethyl)phenyl)-4-(pyrazin-2-yl)thiazol-2-amine]	< 1000 nM
O=C(O)Cc1ccc(-c2csc(Nc3ccc(OCCCc4ccco4)c(C(F)(F)F)c3)n2)s1 [compound 943, 2-(5-(2-(4-(3-(furan-2-yl)propoxy)-3-(trifluoromethyl)phenylamino)thiazol-4-yl)thiophen-2-yl)acetic acid]	< 1000 nM
CCOC(=O)Cc1ccc(-c2csc(Nc3ccc(OCCCc4ccco4)c(C(F)(F)F)c3)n2)s1 [compound 944, ethyl 2-(5-(2-(4-(3-(furan-2-yl)propoxy)-3-(trifluoromethyl)phenylamino)thiazol-4-yl)thiophen-2-yl) acetate]	< 1000 nM
